In patent publication US10703764B2, “Benzopiperazine compositions as BET bromodomain inhibitors” (FORMA Therapeutics, Inc., priority 2013, dated 2020):

Assays:
[1] = biological target: T1, BRD4 BD1 (Homo sapiens, UniProt O60885); experiment: AlphaScreen binding assay, BRD4 Bromodomain 1
T1 construct: made in house
Method in brief: (§1)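 An AlphaScreen competition format was used with His-BRD4 BD1 or BD2 and biotin-H4 K5/8/12/16-acetyl peptide, each at matched final levels of 50 nM (BD1) or 100 nM (BD2). Incubation in HEPES/NaCl buffer with 0.1% BSA and 0.01% Triton X-100 ran ≥1 h before IC50 determination.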

[2] = biological target: T2, BRD4 BD2 (Homo sapiens, UniProt O60885); experiment: AlphaScreen binding assay, BRD4 Bromodomain 2
T2 construct: made in house
Method in brief: as §1

[3] = system: MV4-11 cells; experiment: Oncology cell growth assay (3-day proliferation, CellTiter-Glo); format: cell-based; settings: Homo sapiens, MV4-11, 72 h, AML cell line MV4-11, 72 hours, compounds grouped by IC50 range, read-out: MV4-11 IC50 (inhibition of proliferation, gIC50)
Method in brief: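 Luminescence from CellTiter-Glo served as the growth read-out after MV4-11 cells (3000/well) were cultured with compound for 72 hours. Final concentrations spanned 10 to 0.0045 μM in 3-fold steps. gIC50 values were derived by four-parameter logistic fitting relative to DMSO and cell-free controls.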

Row | SMILES | IC50 [1] [nM] | IC50 [2] [nM] | IC50 [3] [nM]
1 | COC(=O)N1c2ccc(-c3ccc(C(=O)N4CC[C@@H](O)C4)cc3)cc2N(C(=O)OC(C)C)C[C@@H]1C [Example I-577] | 100 to 1000 | 50 to 500 | > 500
2 | CC(C)OC(=O)N1C[C@H](C)N(C(=O)C2CC2)c2ccc(-c3ccc(C(=O)N4CC(O)C4)cc3)cc21 [Example I-578] | 100 to 1000 | 50 to 500 | 100 to 500
3 | COC(=O)N1c2ccc(-c3ccc(C(=O)N4CC(O)C4)cc3)cc2N(C(=O)OC(C)C)C[C@@H]1C [Example I-579] | 100 to 1000 | 50 to 500 | 100 to 500
4 | CC(=O)N1c2ccc(-c3ccc(C(=O)N4CC[C@H](O)C4)cc3)cc2N(C(=O)OC(C)C)C[C@@H]1C [Example I-580] | 100 to 1000 | 50 to 500 | 100 to 500
5 | CC(=O)N1c2ccc(-c3ccc(C(=O)N4CC[C@@H](O)C4)cc3)cc2N(C(=O)OC(C)C)C[C@@H]1C [Example I-581] | 100 to 1000 | 50 to 500 | 100 to 500
6 | CC(=O)N1c2ccc(-c3ccc(C(=O)N4CC(O)C4)cc3)cc2N(C(=O)OC(C)C)C[C@@H]1C [Example I-582] | 100 to 1000 | 50 to 500 | 100 to 500
7 | CC(=O)N1c2ccc(-c3ccc(C(=O)NCc4ncco4)cc3)cc2N(C(=O)OC(C)C)C[C@@H]1C [Example I-584] | 100 to 1000 | 50 to 500 | 100 to 500
8 | CC(=O)N1c2ccc(-c3ccc(C(=O)N4CC[C@H](N)C4)cc3)cc2N(C(=O)OC(C)C)C[C@@H]1C [Example I-586] | 100 to 1000 | 50 to 500 | 100 to 500
9 | CC(=O)N1c2ccc(-c3ccc(C(=O)N4CCC[C@@H](N)C4)cc3)cc2N(C(=O)OC(C)C)C[C@@H]1C [Example I-589] | 100 to 1000 | 50 to 500 | 100 to 500
10 | CC(=O)N1c2ccc(-c3ccc(C(=O)N4CCC(N)CC4)cc3)cc2N(C(=O)OC(C)C)C[C@@H]1C [Example I-590] | 100 to 1000 | 50 to 500 | 100 to 500
11 | CC(=O)N1c2ccc(-c3ccc(C(=O)N4CCCC[C@@H]4CN)cc3)cc2N(C(=O)OC(C)C)C[C@@H]1C [Example I-591] | 100 to 1000 | 50 to 500 | 100 to 500
12 | CC(=O)N1c2ccc(-c3ccc(C(=O)N4CCC[C@@H]4CN)cc3)cc2N(C(=O)OC(C)C)C[C@@H]1C [Example I-592] | 100 to 1000 | 50 to 500 | 100 to 500
13 | CC(=O)N1c2ccc(-c3ccc(C(=O)N4C[C@@H]5C[C@H]4CN5)cc3)cc2N(C(=O)OC(C)C)C[C@@H]1C [Example I-593] | 100 to 1000 | 50 to 500 | 100 to 500
14 | CC(=O)N1c2ccc(-c3ccc(C(=O)N[C@H]4C[C@H]5CC[C@@H](C4)N5)cc3)cc2N(C(=O)OC(C)C)C[C@@H]1C [Example I-594] | 100 to 1000 | 50 to 500 | 100 to 500
15 | CC(=O)N1c2ccc(-c3cnn(CC4CCS(=O)(=O)CC4)c3)cc2N(C(=O)OC(C)C)C[C@@H]1C [Example I-595] | 100 to 1000 | 50 to 500 | 100 to 500
16 | CC(=O)N1c2ccc(-c3cnn(CC(=O)N(C)C4CC4)c3)cc2N(C(=O)OC(C)C)C[C@@H]1C [Example I-596] | 100 to 1000 | < 50 | 100 to 500
17 | CC(=O)N1c2ccc(-c3cnn(CCN4CCCS4(=O)=O)c3)cc2N(C(=O)OC(C)C)C[C@@H]1C [Example I-597] | 100 to 1000 | 50 to 500 | 100 to 500
18 | CC(=O)N1c2ccc(-c3cnn(CCn4ccnc4)c3)cc2N(C(=O)OC(C)C)C[C@@H]1C [Example I-598] | 100 to 1000 | 50 to 500 | 100 to 500
19 | CC(=O)N1c2ccc(-c3cnn(CC(=O)N4CCCCC4)c3)cc2N(C(=O)OC(C)C)C[C@@H]1C [Example I-599] | 100 to 1000 | < 50 | 100 to 500
20 | CC(=O)N1c2ccc(-c3cnn(CC4(CO)COC4)c3)cc2N(C(=O)OC(C)C)C[C@@H]1C [Example I-600] | < 100 | < 50 | 100 to 500

Row | SMILES | IC50 [1] [nM] | IC50 [2] [nM] | IC50 [3] [nM]
21 | CC(=O)N1c2ccc(-c3cnn(Cc4c[nH]cn4)c3)cc2N(C(=O)OC(C)C)CC1C (stereo not drawn) [Example I-601] | 100 to 1000 | < 50 | 100 to 500
22 | CC(=O)N1c2ccc(-c3cnn(Cc4c(C)noc4C)c3)cc2N(C(=O)OC(C)C)C[C@@H]1C [Example I-602] | 100 to 1000 | < 50 | 100 to 500
23 | CC(=O)N1c2ccc(-c3cnn(CC4CCC4)c3)cc2N(C(=O)OC(C)C)C[C@@H]1C [Example I-603] | 100 to 1000 | 50 to 500 | 100 to 500
24 | CC(=O)N1c2ccc(-c3cnn(CC(F)(F)F)c3)cc2N(C(=O)OC(C)C)C[C@@H]1C [Example I-604] | < 100 | 50 to 500 | 100 to 500
25 | CC(=O)N1c2ccc(-c3cnn(CC4(C)COC4)c3)cc2N(C(=O)OC(C)C)C[C@@H]1C [Example I-605] | 100 to 1000 | 50 to 500 | 100 to 500
26 | CC(=O)N1c2ccc(-c3cnn(CCC(N)=O)c3)cc2N(C(=O)OC(C)C)C[C@@H]1C [Example I-606] | 100 to 1000 | < 50 | 100 to 500
27 | CC(=O)N1c2ccc(-c3cnn(CC#N)c3)cc2N(C(=O)OC(C)C)C[C@@H]1C [Example I-607] | 100 to 1000 | 50 to 500 | 100 to 500
28 | CC(=O)N1c2ccc(-c3cnn(CC4CCOCC4)c3)cc2N(C(=O)OC(C)C)C[C@@H]1C [Example I-608] | 100 to 1000 | 50 to 500 | 100 to 500
29 | CC(C)OC(=O)N1C[C@H](C)N(C(=O)C2CC2)c2ccc(-c3cnn(CC4CCS(=O)(=O)CC4)c3)cc21 [Example I-609] | 100 to 1000 | 50 to 500 | > 500
30 | CC(C)OC(=O)N1C[C@H](C)N(C(=O)C2CC2)c2ccc(-c3cnn(CCN4CCCS4(=O)=O)c3)cc21 [Example I-611] | 100 to 1000 | 50 to 500 | > 500
31 | CC(C)OC(=O)N1C[C@H](C)N(C(=O)C2CC2)c2ccc(-c3cnn(CCn4ccnc4)c3)cc21 [Example I-612] | 100 to 1000 | 50 to 500 | > 500
32 | CC(C)OC(=O)N1C[C@H](C)N(C(=O)C2CC2)c2ccc(-c3cnn(CC4(CO)COC4)c3)cc21 [Example I-615] | 100 to 1000 | 50 to 500 | 100 to 500
33 | CC(C)OC(=O)N1CC(C)N(C(=O)C2CC2)c2ccc(-c3cnn(Cc4c[nH]cn4)c3)cc21 (stereo not drawn) [Example I-616] | 100 to 1000 | 50 to 500 | 100 to 500
34 | Cc1noc(C)c1Cn1cc(-c2ccc3c(c2)N(C(=O)OC(C)C)C[C@H](C)N3C(=O)C2CC2)cn1 [Example I-617] | 100 to 1000 | 50 to 500 | 100 to 500
35 | CC(C)OC(=O)N1C[C@H](C)N(C(=O)C2CC2)c2ccc(-c3cnn(CC4CCC4)c3)cc21 [Example I-618] | 1000 to 10000 | > 500 | 100 to 500
36 | CC(C)OC(=O)N1C[C@H](C)N(C(=O)C2CC2)c2ccc(-c3cnn(CC(F)(F)F)c3)cc21 [Example I-619] | 100 to 1000 | 50 to 500 | 100 to 500
37 | CC(C)OC(=O)N1C[C@H](C)N(C(=O)C2CC2)c2ccc(-c3cnn(CC4(C)COC4)c3)cc21 [Example I-620] | 100 to 1000 | 50 to 500 | 100 to 500
38 | CC(C)OC(=O)N1C[C@H](C)N(C(=O)C2CC2)c2ccc(-c3cnn(CCC(N)=O)c3)cc21 [Example I-621] | 100 to 1000 | 50 to 500 | > 500
39 | CC(C)OC(=O)N1C[C@H](C)N(C(=O)C2CC2)c2ccc(-c3cnn(CC4CCOCC4)c3)cc21 [Example I-623] | 100 to 1000 | 50 to 500 | 100 to 500
40 | COC(=O)N1c2ccc(-c3cnn(CC4CCS(=O)(=O)CC4)c3)cc2N(C(=O)OC(C)C)C[C@@H]1C [Example I-624] | 100 to 1000 | 50 to 500 | > 500
